The values that follow come from article PMC12697290, “Identification of novel PTP1B inhibitor for the treatment of LPS-induced myocardial apoptosis: machine learning based virtual screening and biological evaluation” (Journal of Enzyme Inhibition and Medicinal Chemistry, 2025).

Each structure is given as a SMILES string.

Assay [1] deals with T1, PTP1B (Homo sapiens, UniProt P18031).
T1 sequence (P18031 1-435): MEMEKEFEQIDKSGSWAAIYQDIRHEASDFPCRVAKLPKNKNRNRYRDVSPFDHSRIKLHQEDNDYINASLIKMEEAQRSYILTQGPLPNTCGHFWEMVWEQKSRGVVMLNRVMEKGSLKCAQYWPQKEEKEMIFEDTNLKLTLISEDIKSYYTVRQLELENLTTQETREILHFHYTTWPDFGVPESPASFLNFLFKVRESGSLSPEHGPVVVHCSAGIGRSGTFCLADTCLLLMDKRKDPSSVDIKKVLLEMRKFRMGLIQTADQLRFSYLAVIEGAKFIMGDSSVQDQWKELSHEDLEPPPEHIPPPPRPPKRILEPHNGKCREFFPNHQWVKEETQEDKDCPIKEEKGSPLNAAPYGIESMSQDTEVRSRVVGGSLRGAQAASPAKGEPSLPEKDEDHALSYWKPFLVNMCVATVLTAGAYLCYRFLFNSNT
Nature of the assay: pNPP hydrolysis, absorbance at […] nm. In kind it is biochemical. Also on record: gene PTPN1; isolated enzyme. As to conditions: 5 mM pNPP, 50 mM Hepes, 1 mM DTT, pH 7.0, 37 °C; 10 μM compound.

Assay [2] deals with T2, acidic phosphatase (ACP1) (Homo sapiens, UniProt P24666).
T2 construct: isolated enzyme
T2 sequence (P24666 2-158): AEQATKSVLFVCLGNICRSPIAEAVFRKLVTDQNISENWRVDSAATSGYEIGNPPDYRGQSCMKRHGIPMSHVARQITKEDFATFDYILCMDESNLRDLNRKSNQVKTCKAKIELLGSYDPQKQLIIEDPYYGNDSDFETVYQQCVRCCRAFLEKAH
Nature of the assay: phosphatase inhibition assay (protocol printed for PTP1B: pNPP, […] nm). As to conditions: conditions not stated separately for ACP1. Type of assay: biochemical.

Assay [3] addresses T3, TCPTP (Homo sapiens, UniProt P17706).
T3 sequence (P17706 1-415): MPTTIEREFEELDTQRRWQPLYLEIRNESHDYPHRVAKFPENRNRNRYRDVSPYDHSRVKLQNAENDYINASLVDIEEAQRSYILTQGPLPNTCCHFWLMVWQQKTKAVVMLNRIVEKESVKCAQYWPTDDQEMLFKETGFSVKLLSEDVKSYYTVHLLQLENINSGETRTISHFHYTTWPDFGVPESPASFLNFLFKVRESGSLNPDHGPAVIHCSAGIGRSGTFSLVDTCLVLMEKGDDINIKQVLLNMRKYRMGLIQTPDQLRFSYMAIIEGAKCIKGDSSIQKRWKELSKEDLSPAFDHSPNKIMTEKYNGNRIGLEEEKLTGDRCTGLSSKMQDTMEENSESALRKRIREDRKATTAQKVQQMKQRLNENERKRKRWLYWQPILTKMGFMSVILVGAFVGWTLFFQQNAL
The assay is described as above. In kind it is biochemical. Further details: gene PTPN2; isolated enzyme.

Assay [4] deals with T1, PTP1B. Nature of the assay: pNPP hydrolysis, absorbance at […] nm. In kind it is biochemical. Further details: gene PTPN1; isolated enzyme.
Assay [5] deals with T1, PTP1B. Nature of the assay: cellular thermal shift assay (CETSA), Western blot. As to conditions: AC16 cells. Further details: gene PTPN1; endogenous protein in AC16 human cardiomyocytes, detected by Western blot (antibody 11334-1-AP). In kind it is cell-based. For orientation: A western blot detects proteins with antibodies after separation by electrophoresis.
The target of assay [6] is T3, TCPTP. In words: cellular thermal shift assay (CETSA), Western blot. In kind it is cell-based. Also on record: gene PTPN2; endogenous protein in AC16 human cardiomyocytes, detected by Western blot (antibody 11214-1-AP). The settings on record: AC16 cells.

As to `CO/N=C(\C(=O)N[C@@H]1C(=O)N2C(C(=O)O)=C(CSc3nc(=O)c(O)nn3C)CS[C@H]12)c1csc(N)n1` [PI-1], in assay [1], the “inhibitory rate at 20 μM” value is “compounds PI-1, PI-2 and PI-7 displayed a moderate to potent inhibitory activity against PTP1B”.
By IC50 is commonly meant the concentration at which inhibition is half-maximal. Consider `N#C/C(=C\c1ccc(OCC(=O)O)cc1)c1nc2ccccc2[nH]1` [PI-2], for which the results for the IC50 in assay [2], in assay [3] and in assay [4] were above 20 µM, 5.9 ± 2.4 µM and 4.1 ± 0.3 µM, respectively. Also, the “inhibitory rate at 20 μM” value in assay [1] is 95.6%. Besides, the CETSA stabilisation result in assay [5] was “PI-2 could effectively enhance the PTP1B and TCPTP stability in vitro”; in assay [6] it was “PI-2 could effectively enhance the PTP1B and TCPTP stability in vitro”.
`O=C(O)COCC(=O)Nc1cc(SCC(O)CO)cc([N+](=O)[O-])c1` (centres unmarked) [PI-7]: in assay [1], the “inhibitory rate at 20 μM” value is “compounds PI-1, PI-2 and PI-7 displayed a moderate to potent inhibitory activity against PTP1B”.
